Results published in ChEMBL document CHEMBL1201862, “PubChem BioAssay data set” (2004).
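Method: 48-hour compound exposure of cells in 96-well plates, five concentrations, linear interpolation of endpoints. GI50: concentration for 50% inhibition of growth.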 The source made the active and inactive calls. Rule as the data show it: active = GI50 up to about 1.1 µM and inactive = higher.

Key:
Assay in all cases: NCI anticancer screen, dose series, 48 h
UACC-257 = tested on: UACC-257
PC-3 = tested on: PC-3
MDA-MB-435 = tested on: MDA-MB-435
UACC-62 = tested on: UACC-62
NCI-H226 = tested on: NCI-H226
NCI-H522 = tested on: NCI-H522
KM-20L2 = tested on: KM-20L2
MCF7 = tested on: MCF7
OVCAR-8 = tested on: OVCAR-8
OVCAR-3 = tested on: OVCAR-3
HOP-62 = tested on: HOP-62
SN12C = tested on: SN12C
A549 = tested on: A549
SF-268 = tested on: SF-268
HOP-92 = tested on: HOP-92
SNB-19 = tested on: SNB-19
TK-10 = tested on: TK-10
A498 = tested on: A498
MOLT-4 = tested on: MOLT-4
UO-31 = tested on: UO-31

Compound	GI50 (UACC-257)	GI50 (PC-3)	GI50 (MDA-MB-435)	GI50 (UACC-62)	GI50 (NCI-H226)	GI50 (NCI-H522)	GI50 (KM-20L2)	GI50 (MCF7)	GI50 (OVCAR-8)	GI50 (OVCAR-3)	GI50 (HOP-62)	GI50 (SN12C)	GI50 (A549)	GI50 (SF-268)	GI50 (HOP-92)	GI50 (SNB-19)	GI50 (TK-10)	GI50 (A498)	GI50 (MOLT-4)	GI50 (UO-31)
O=C[C@@H](CO)O[C@H](C=O)c1c[nH]c(=O)[nH]c1=O	104 µM (inactive)	89.1 µM (inactive)	49.4 µM (inactive)	72.8 µM (inactive)	101 µM (inactive)	70.1 µM (inactive)	84.3 µM (inactive)	45.2 µM (inactive)	66.1 µM (inactive)	68.4 µM (inactive)	59 µM (inactive)	83 µM (inactive)	192 µM (inactive)	102 µM (inactive)	81.1 µM (inactive)	129 µM (inactive)	104 µM (inactive)	119 µM (inactive)	47.8 µM (inactive)	88.5 µM (inactive)
CCN(CC)CCCC(C)Nc1c2ccc(Cl)cc2nc2ccc(OC)cc12 (centres undefined)	1.85 µM (inactive)	1.78 µM (inactive)	1.47 µM (inactive)	1.54 µM (inactive)	4 µM (inactive)	1.35 µM (inactive)	1.33 µM (inactive)	2.08 µM (inactive)	1.05 µM (active)	2.85 µM (inactive)	2.22 µM (inactive)	2.32 µM (inactive)	1.65 µM (inactive)	2.24 µM (inactive)	1.14 µM (inactive)	5.36 µM (inactive)	3.13 µM (inactive)	2.48 µM (inactive)	0.518 µM (active)	2.08 µM (inactive)
Cc1ccc2ccc3ccc(C)nc3c2n1 [NEOCUPROINE]	1.86 µM (inactive)	2.1 µM (inactive)	> 100 µM (inactive)	3.03 µM (inactive)	33.4 µM (inactive)	74.3 µM (inactive)	6.24 µM (inactive)	0.318 µM (active)	> 26.9 µM (inactive)	0.344 µM (active)	4.68 µM (inactive)	> 100 µM (inactive)	7.11 µM (inactive)	> 87.9 µM (inactive)	> 100 µM (inactive)	> 100 µM (inactive)	> 100 µM (inactive)	> 40.1 µM (inactive)	1.34 µM (inactive)	> 76.2 µM (inactive)
CCCC(O)[C@@]1(CC)CC(C)C(O)(C2(C)C[C@H](C)[C@@H](C(CC)C(=O)C(C)[C@@H](O)[C@H](C)C3OC(O)(C(CC)C(=O)O)[C@@H](C)C(O)C3CC)O2)O1 (some centres undefined)	0.138 µM (active)	0.0723 µM (active)	0.151 µM (active)	0.923 µM (active)	1.1 µM (active)	0.0211 µM (active)	0.276 µM (active)	0.461 µM (active)	0.444 µM (active)	0.0733 µM (active)	0.369 µM (active)	0.12 µM (active)	0.123 µM (active)	0.284 µM (active)	0.3 µM (active)	0.279 µM (active)	0.527 µM (active)	0.412 µM (active)	0.449 µM (active)	1.01 µM (active)
CCc1cccc(CC)c1NC(=O)C(C#N)C1=C(Cl)C(=O)c2ccccc2C1=O (centres undefined)	17.4 µM (inactive)	13 µM (inactive)	14.5 µM (inactive)	17.5 µM (inactive)	15 µM (inactive)	8.55 µM (inactive)	21.4 µM (inactive)	14.6 µM (inactive)	19.8 µM (inactive)	16.8 µM (inactive)	14.5 µM (inactive)	16.7 µM (inactive)	18.5 µM (inactive)	16.6 µM (inactive)	2.96 µM (inactive)	18.1 µM (inactive)	21.2 µM (inactive)	19 µM (inactive)	1.53 µM (inactive)	11.8 µM (inactive)
Cc1cc(C)nc(NS(=O)(=O)c2ccc(NC(=O)c3cccc4c(Nc5ccc(S(N)(=O)=O)cc5)c5ccccc5nc34)cc2)n1	28.1 µM (inactive)	–	–	2.88 µM (inactive)	> 100 µM (inactive)	13 µM (inactive)	> 75.5 µM (inactive)	–	30.3 µM (inactive)	9.42 µM (inactive)	26.7 µM (inactive)	16.1 µM (inactive)	> 100 µM (inactive)	6.59 µM (inactive)	20.7 µM (inactive)	4.02 µM (inactive)	> 74.6 µM (inactive)	> 94.2 µM (inactive)	6.71 µM (inactive)	> 100 µM (inactive)
CCOC(=O)c1c(-c2ccccc2)oc(-c2ccccc2)c1C(=O)OCC	77.6 µM (inactive)	–	–	> 100 µM (inactive)	> 100 µM (inactive)	> 100 µM (inactive)	38.9 µM (inactive)	–	> 100 µM (inactive)	> 100 µM (inactive)	> 100 µM (inactive)	> 100 µM (inactive)	> 100 µM (inactive)	> 100 µM (inactive)	> 100 µM (inactive)	> 100 µM (inactive)	> 100 µM (inactive)	60.7 µM (inactive)	48.1 µM (inactive)	> 100 µM (inactive)
